Reference: patent US11261186B2, “Biaryl derivative as GPR120 agonist” (LG CHEM, LTD., priority 2014, dated 2022)

Target: T1, hGPR120 (Homo sapiens, UniProt Q5NUL3)
T1 construct: expressed in transfected cells; host or cells: CHO-K1
T1 sequence (Q5NUL3 1-361): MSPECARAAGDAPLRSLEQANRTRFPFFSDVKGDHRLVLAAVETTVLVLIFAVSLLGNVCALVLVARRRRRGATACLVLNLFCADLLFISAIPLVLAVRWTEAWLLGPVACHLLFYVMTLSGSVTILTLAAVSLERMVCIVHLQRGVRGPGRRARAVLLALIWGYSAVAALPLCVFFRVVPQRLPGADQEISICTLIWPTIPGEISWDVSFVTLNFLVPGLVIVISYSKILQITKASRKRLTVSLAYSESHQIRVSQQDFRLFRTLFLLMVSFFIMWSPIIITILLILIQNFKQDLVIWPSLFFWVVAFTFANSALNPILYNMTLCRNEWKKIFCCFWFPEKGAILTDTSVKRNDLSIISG
Experiment: Measurement of Activity of GPR120 Agonist (Cell-Based Assay), Calcium 5 dye fluorescence
Details: CHO-K1 cells expressing Ga16 and hGPR120
Method in brief: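 Fluorescence increase (Ex 485 nm, Em 525 nm) after agonist addition was calculated as relative percent of the 1% DMSO-only signal. Cells were CHO-K1 stably carrying Gα16 plus human GPR120, dye-loaded for 1 h after overnight (18 h) culture.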

Row | SMILES | EC50 [nM]
1 | CN(CCCC(=O)O)c1c(F)cc(-c2cccc(OCC3CCC3)n2)cc1F [Example 522, 4-{[4-(6-cyclobutylmethoxy-pyridin-2-yl)-2,6-difluoro-phenyl]-methyl-amino}-butyric acid] | < 200
2 | O=C(O)CCCOc1c(F)cc(-c2cccc(OCC3CCC3)n2)cc1F [Example 523, 4-[4-(6-cyclobutylmethoxy-pyridin-2-yl)-2,6-difluoro-phenoxy]-butyric acid] | < 200
3 | CN(CCCC(=O)O)c1c(F)cc(-c2cccc(OCC3CC3)c2)cc1F [Example 524, 4-[(3′-cyclopropylmethoxy-3,5-difluoro-biphenyl-4-yl)-methyl-amino]-butyric acid] | < 200
4 | CN(CCCC(=O)O)c1c(F)cc(-c2cccc(OC3CCCC3)c2)cc1F [Example 525, 4-[(3′-cyclopentyloxy-3,5-difluoro-biphenyl-4-yl)-methyl-amino]-butyric acid] | < 200
5 | COc1ccc(-c2cc(F)c(OCCCC(=O)O)c(F)c2)cc1OCC1CC1 [Example 526, 4-(3′-cyclopropylmethoxy-3,5-difluoro-4′-methoxy-biphenyl-4-yloxy)-butyric acid] | < 200
6 | O=C(O)CCCOc1c(F)cc(-c2ccc(F)c(OCC3CC3)c2)cc1F [Example 527, 4-(3′-cyclopropylmethoxy-3,5,4′-trifluoro-biphenyl-4-yloxy)-butyric acid] | < 200
7 | O=C(O)CCCOc1c(F)cc(-c2cc(F)cc(OC3CCC3)c2)cc1F [Example 528, 4-(5′-cyclobutoxy-3,5,3′-trifluoro-biphenyl-4-yloxy)-butyric acid] | < 200
8 | Cc1ccc(OCC2CCC2)cc1-c1cc(F)c(N(C)CCCC(=O)O)c(F)c1 [Example 529, 4-[(5′-cyclobutylmethoxy-3,5-difluoro-2′-methyl-biphenyl-4-yl)-methyl-amino]-butyric acid] | 200 to 2000
9 | Cc1ccc(OCC2CCC2)cc1-c1cc(F)c(OCCCC(=O)O)c(F)c1 [Example 530, 4-(5′-cyclobutylmethoxy-3,5-difluoro-2′-methyl-biphenyl-4-yloxy)-butyric acid] | < 200
10 | CN(CCCC(=O)O)c1c(F)cc(-c2ccc(Cl)c(OC3CCC3)n2)cc1F [Example 531, 4-{[4-(5-chloro-6-cyclobutoxy-pyridin-2-yl)-2,6-difluoro-phenyl]-methyl-amino}-butyric acid] | 200 to 2000
11 | Cc1ccc(-c2cc(F)c(OCCCC(=O)O)c(F)c2)cc1OCC1CC1 [Example 532, 4-(3′-cyclopropylmethoxy-3,5-difluoro-4′-methyl-biphenyl-4-yloxy)-butyric acid] | < 200
12 | O=C(O)CCCOc1c(F)cc(-c2ccc(Cl)c(OC3CCC3)n2)cc1F [Example 533, 4-[4-(5-chloro-6-cyclobutoxy-pyridin-2-yl)-2,6-difluoro-phenoxy]-butyric acid] | 200 to 2000
13 | O=C(O)CCCOc1c(F)cc(-c2ccc(Cl)c(OCC3CC3)c2)cc1F [Example 534, 4-(4′-chloro-3′-cyclopropylmethoxy-3,5-difluoro-biphenyl-4-yloxy)-butyric acid] | 200 to 2000
14 | O=C(O)CCCOc1ccc(-c2cc(F)cc(OC3CCC3)c2)cc1F [Example 536, 4-(5′-cyclobutoxy-3,3′-difluoro-biphenyl-4-yloxy)-butyric acid] | < 200
15 | O=C(O)CCCCc1ccc(-c2cccc(OC3CCC3)n2)cc1F [Example 537, 5-[4-(6-cyclobutoxy-pyridin-2-yl)-2-fluoro-phenyl]-pentanoic acid] | < 200
16 | O=C(O)CCCOc1ccc(-c2cccc(OC3CCC3)n2)cc1F [Example 538, 4-[4-(6-cyclobutoxy-pyridin-2-yl)-2-fluoro-phenoxy]-butyric acid] | < 200
17 | O=C(O)CCCOc1ccc(-c2cccc(OCC3CCC3)n2)cc1F [Example 539, 4-[4-(6-cyclobutylmethoxy-pyridin-2-yl)-2-fluoro-phenoxy]-butyric acid] | 200 to 2000
18 | O=C(O)CCCOc1ccc(-c2cccc(SC3CCC3)n2)cc1F [Example 540, 4-[4-(6-cyclobutylsulfanyl-pyridin-2-yl)-2-fluoro-phenoxy]-butyric acid] | < 200
19 | O=C(O)C1CC1COc1c(F)cc(-c2cc(F)cc(OC3CCC3)c2)cc1F (stereo not drawn) [Example 541, 2-(3′-cyclobutoxy-3,5,5′-trifluoro-biphenyl-4-yloxymethyl)-cyclopropanecarboxylic acid] | < 200
20 | Cc1cc(OC2CCC2)nc(-c2cc(F)c(OCC3CC3C(=O)O)c(F)c2)n1 (stereo not drawn) [Example 542, 2-[4-(4-cyclobutoxy-6-methyl-pyrimidin-2-yl)-2,6-difluoro-phenoxymethyl]-cyclopropanecarboxylic acid] | < 200

Row | SMILES | EC50 [nM]
21 | O=C(O)C1CC1COc1c(F)cc(-c2nccc(OC3CCC3)n2)cc1F (stereo not drawn) [Example 543, 2-[4-(4-cyclobutoxy-pyrimidin-2-yl)-2,6-difluoro-phenoxymethyl]-cyclopropanecarboxylic acid] | < 200
22 | O=C(O)C1CC1COc1c(F)cc(-c2cccc(OC3CCC3)n2)cc1F (stereo not drawn) [Example 544, 2-[4-(6-cyclobutoxy-pyridin-2-yl)-2,6-difluoro-phenoxymethyl]-cyclopropanecarboxylic acid] | < 200
23 | O=C(O)C1CC1COc1c(F)cc(-c2nccc(OCC3CC3)n2)cc1F (stereo not drawn) [Example 545, 2-[4-(4-cyclopropylmethoxy-pyrimidin-2-yl)-2,6-difluoro-phenoxymethyl]-cyclopropanecarboxylic acid] | 200 to 2000
24 | Cc1cc(OCC2CC2)nc(-c2cc(F)c(OCC3CC3C(=O)O)c(F)c2)n1 (stereo not drawn) [Example 546, 2-[4-(4-cyclopropylmethoxy-6-methyl-pyrimidin-2-yl)-2,6-difluoro-phenoxymethyl]-cyclopropanecarboxylic acid] | 200 to 2000
25 | O=C(O)C1CC1COc1c(F)cc(-c2cncc(OCC3CC3)n2)cc1F (stereo not drawn) [Example 547, 2-[4-(6-cyclopropylmethoxy-pyrazin-2-yl)-2,6-difluoro-phenoxymethyl]-cyclopropanecarboxylic acid] | 200 to 2000
26 | Cc1cc(OC2CCC2)nc(-c2cc(F)c(OCC3CC3C(=O)O)c(F)c2)c1 (stereo not drawn) [Example 548, 2-[4-(6-cyclobutoxy-4-methyl-pyridin-2-yl)-2,6-difluoro-phenoxymethyl]-cyclopropanecarboxylic acid] | < 200
27 | O=C(O)C1CC1COc1c(F)cc(-c2cccc(OCC3CC3)n2)cc1F (stereo not drawn) [Example 549, 2-[4-(6-cyclopropylmethoxy-pyridin-2-yl)-2,6-difluoro-phenoxymethyl]-cyclopropanecarboxylic acid] | < 200
28 | O=C(O)C1CC1COc1c(F)cc(-c2cncc(OC3CCC3)n2)cc1F (stereo not drawn) [Example 550, 2-[4-(6-cyclobutoxy-pyrazin-2-yl)-2,6-difluoro-phenoxymethyl]-cyclopropanecarboxylic acid] | < 200
29 | O=C(O)C1CC1COc1c(F)cc(-c2csc(OC3CCC3)n2)cc1F (stereo not drawn) [Example 551, 2-[4-(2-cyclobutoxy-thiazol-4-yl)-2,6-difluoro-phenoxymethyl]-cyclopropanecarboxylic acid] | 200 to 2000
30 | O=C(O)C1CC1COc1c(F)cc(-c2cccc(OCC3CC3)n2)cc1Cl (stereo not drawn) [Example 552, 2-[2-chloro-4-(6-cyclopropylmethoxy-pyridin-2-yl)-6-fluoro-phenoxymethyl]-cyclopropanecarboxylic acid] | 200 to 2000
31 | Cc1cc(OC2CCC2)nc(-c2cc(F)c(OCC3CC3C(=O)O)c(Cl)c2)n1 (stereo not drawn) [Example 553, 2-[2-chloro-4-(4-cyclobutoxy-6-methyl-pyrimidin-2-yl)-6-fluoro-phenoxymethyl]-cyclopropanecarboxylic acid] | 200 to 2000
32 | O=C(O)C1CC1COc1c(F)cc(-c2cccc(OC3CCC3)n2)cc1Cl (stereo not drawn) [Example 554, 2-[2-chloro-4-(6-cyclobutoxy-pyridin-2-yl)-6-fluoro-phenoxymethyl]-cyclopropanecarboxylic acid] | < 200
33 | O=C(O)CCC1CCc2cc(-c3cccc(OC4CCC4)c3)ccc2O1 (stereo not drawn) [Example 555, 3-[6-(3-cyclobutoxy-phenyl)-chroman-2-yl]-propionic acid] | < 200
34 | CCCOc1cccc(-c2ccc3c(c2)CCC(CCC(=O)O)O3)n1 (stereo not drawn) [Example 556, 3-[6-(6-propoxy-pyridin-2-yl)-chroman-2-yl]-propionic acid] | < 200
35 | O=C(O)CCCOc1c(F)cc(-c2ccc3cc[nH]c3c2)cc1F [Example 557, 4-[2,6-difluoro-4-(1H-indol-6-yl)-phenoxy]-butanoic acid] | 2000 to 20000
36 | CC(C)n1ccc2ccc(-c3cc(F)c(OCCCC(=O)O)c(F)c3)cc21 [Example 558, 4-[2,6-difluoro-4-(1-isopropyl-1H-indol-6-yl)-phenoxy]-butanoic acid] | < 200
37 | O=C(O)CCCOc1c(F)cc(-c2ccc3ccn(CC4CC4)c3c2)cc1F [Example 559, 4-[4-(1-cyclopropylmethyl-1H-indol-6-yl)-2,6-difluoro-phenoxy]-butanoic acid] | < 200
38 | O=C(O)CC1CCN(c2c(F)cc(-c3cccc(OCC4CC4)n3)cc2F)C1 (stereo not drawn) [Example 560, {1-[4-(6-cyclopropylmethoxy-pyridin-2-yl)-2,6-difluoro-phenyl]-pyrrolidin-3-yl}-acetic acid] | < 200
39 | O=C(O)CC1CCN(c2c(F)cc(-c3cccc(OC4CCC4)n3)cc2F)C1 (stereo not drawn) [Example 561, {1-[4-(6-cyclobutoxy-pyridin-2-yl)-2,6-difluoro-phenyl]-pyrrolidin-3-yl}-acetic acid] | < 200
